Results reported in patent US20160287534A1, “METHODS FOR REVERSING FIBROSIS” (The University of Connecticut, priority 2015, published 2016).

Assays:
[1] = test system: LX-2 cells; experiment: qRT-PCR of TGFβ1-induced fibrogenic and TGFβ1 signaling genes in LX-2 cells; assay type: cell-based
Protocol: LX-2 cells were kindly provided by Dr. Scott Friedman at the Icahn School of Medicine at Mount Sinai (New York, N.Y.). Cells were maintained in low-glucose DMEM containing 2% FBS, 4 mM 1-glutamine, 100 U/mL penicillin and 100 μg/mL streptomycin in a 37° C. humidified cell culture chamber providing 5% CO2. LX-2 cells were incubated with varying concentrations of ASTX for 12 or 24 h, and subsequently activated by 2 ng/mL of TGFβ1 (Peprotech, Rocky Hill, N.J.) for 1 to 24 h. Primary mouse HSCs were plated on untreated petri dishes (BD Falcon, Franklin Lakes, N.J.) and maintained in low-glucose DMEM supplemented with 10% FBS, 4 mM L-glutamine, 100 U/mL penicillin and 100 μg/mL streptomycin in a 37° C. humidified cell culture chamber under 5% CO2. ASTX (25 μM) was added at day 2 or day 4 after plating until day 6 with daily media change. All cell culture supplies were purchased from HyClone (Thermo Scientific, Logan, Utah).
Total RNA extraction, cDNA synthesis, and qRT-PCR were conducted using a Bio-Rad CFX96 Real-Time system (Bio-Rad, Hercules, Calif.) as previously described (see Park et al. Nutr. Res. 2008, vol. 28, pp. 83-91; Rasmussen et al. J. Nutr. 2008, vol. 138, pp. 476-481). Gene sequences were obtained from the GenBank database and primers were designed using Beacon Designer (Premier Biosoft, Palo Alto, Calif.). Primer sequences are available (see supplemental table of Yang et al. Biochimica et Biophysica Acta 2015, vol. 1850, pp. 178-185).

[2] = test system: primary HSCs; experiment: Activation of primary mouse HSCs on untreated dishes (Example 1): α-SMA qRT-PCR, immunostaining, in-cell Western; assay type: cell-based, C57BL/6J mice
Description: Primary HSCs were isolated from C57BL/6J mouse liver using the collagenase/pronase digestion method (see Weiskirchen et al. Fibrosis Research, 2005, vol. 117, pp. 99-113). In brief, mice were anesthetized with ketamine/xylazine (120/6 mpk) (Butler Schein, Dublin, Ohio). Abdominal and chest cavities were opened to expose the portal vein and to locate the heart and vena cava, respectively. Subsequently, a 20 G×1″ I.V. catheter (Terumo, Somerset, N.J.) was inserted into the vena cava through the right atrium and the portal vein was cut. A mouse liver was perfused at 5 mL/min with 25 mL SC-1 solution consisting of the following (per L); 8000 mg NaCl, 400 mg KCl, 88.17 mg NaH2PO4 2H2O, 120.45 mg Na2HPO4 12H2O, 2380 mg 4-(2-hydroxyethyl)-1-piperazineethanesulfonic acid (HEPES), 350 mg NaHCO3, 190 mg ethylene glycol tetraacetic acid, and 900 mg glucose, pH 7.2-7.3. The liver was, then, digested with 300 μg/mL pronase E (Roche, Mannheim, Germany) in SC-2 solution consisting of 8000 mg NaCl, 400 mg KCl, 88.17 mg NaH2PO4 2H2O, 120.45 mg Na2HPO4 12H2O, 2380 mg HEPES, 350 mg NaHCO3, and 560 mg CaCl2 2H2O, per L, pH 7.2-7.3, followed by 600 μg/mL collagenase D (Roche, Mannheim, Germany) in SC-2 solution at 5 mL/min for 5 min each. The digested liver was harvested and filtered through a 100 μm cell strainer (Fisher Scientific, Pittsburgh, Pa.). The hepatic cells were then centrifuged at 60×g for 1 min to separate non-parenchymal cells from hepatocytes. The supernatant containing non-parenchymal cells was separated based on density using a top layer of Gey's Balanced Salt Solution (GBSS), a middle layer of 10% Nycodenz (Axis-Shield, Scotland) and a bottom layer of 14.5% Nycodenz diluted in GBSS. The tube was centrifuged at 2100×g or 20 min and the primary HSCs were collected from the interface between the GBSS and 10% Nycodenz.
LX-2 cells were kindly provided by Dr. Scott Friedman at the Icahn School of Medicine at Mount Sinai (New York, N.Y.). […]

[3] = test system: LX-2 cells; experiment: Reactive oxygen species (ROS) measurement in LX-2 cells stimulated with TGFβ1 or tBHP; assay type: cell-based
Protocol: Cellular ROS levels were measured in LX-2 cells as previously described (see Lee et al. J. Nutr. Biochem. 2013, vol. 25, iss. 4, pp. 404-411). Briefly, LX-2 cells were plated in a black 24-well plate (Wallac Oy, Turku, Finland). When cells reached ˜90% confluency, they were pre-incubated with 5, 10 or 25 μM ASTX for 24 h and subsequently stimulated with 2 ng/mL TGFβ1 or 10 μM tert-butyl hydrogen peroxide (tBHP, Sigma, St. Louis, Mo.) for additional 24 h. cells were then incubated with 5 μM dichlorofluorescein (Sigma, St. Louis, Mo.) for 30 min and fluorescence was read at an excitation wavelength of 485 nm and an emission wavelength of 530 nm. The data were expressed as fluorescent intensity per μg of cell protein.

**Q.** Which results are given for CC1=C(/C=C/C(C)=C/C=C/C(C)=C/C=C/C=C(C)/C=C/C=C(C)/C=C/C2=C(C)C(=O)C(O)CC2(C)C)C(C)(C)CC(O)C1=O (centres unmarked) [ASTX, astaxanthin]?
**A.** induction of α-SMA mRNA by TGFβ1 ([1]; 25 μM ASTX, 3 and 12 h of TGFβ1 stimulation (FIG. 2A)): significantly inhibited; induction of Col1A1 mRNA by TGFβ1 ([1]; 25 μM ASTX, 12 h of TGFβ1 stimulation (FIG. 2A)): significantly inhibited; induction of the fibrogenic genes by TGFβ1 ([1]; 10 and 25 μM ASTX, TGFβ1 24 h (FIG. 2B)): significantly inhibited; TGFβ-induced increases in mRNA levels of TβRI and TβRII ([1]; LX-2 cells, 25 μM ASTX (FIG. 5C)): almost completely abolished; TGFβ1-induced expression of α-SMA and Col1A1 mRNA ([1]; LX-2 cells, 25 μM ASTX, 2 ng/mL TGFβ1 24 h (FIG. 3A)): significantly attenuated; TGFβ1-induced increase in mRNA levels of Smad2, Smad3 and Smad7 ([1]; LX-2 cells, 25 μM ASTX, TGFβ1 12 h (FIG. 5C)): abolished or significantly attenuated; basal expression levels of α-SMA and Col1A1 mRNA ([1]; LX-2 cells, 25 μM ASTX, no TGFβ1 (FIG. 3A)): did not alter; TGFβ1-induced NOX4 mRNA levels ([1]; LX-2 cells, P=0.074): decreased TGFβ1-induced NOX4 mRNA levels although it did not reach statistical significance; α-SMA mRNA levels ([2]; 25 μM ASTX added for 2 days during HSC activation (FIG. 6A)): significantly reduced; decrease of α-SMA protein (in-cell Western) ([2]; ASTX treatment at days 0, 2 and 4 until day 6, vs control without ASTX (FIG. 6C)): 30-40%; α-SMA protein levels (immunostaining) ([2]; day 4 of incubation, ASTX for 2 days (FIG. 6B)): markedly decreased; increase in cellular ROS levels induced by TGFβ1 ([3]; 25 μM ASTX, 2 ng/mL TGFβ1): completely abolished; increase in cellular ROS levels induced by tBHP ([3]; 25 μM ASTX, 10 μM tBHP): completely abolished; cellular ROS levels increased by TGFβ1 and tBHP ([3]; LX-2 cells pretreated with 5, 10 or 25 μM ASTX 24 h (FIGS. 1B, 1C)): decreased
